In patent publication US20160280743A1, “BACTERIAL MUTANTS AND METHODS OF USE” (priority 2015, published 2016):
Converted amounts (≈) assume the structure as drawn. Like-named read-outs stand apart in the source and are kept apart here.

Tests used:
[1] = tested on: E. coli GD102 (ΔTolC); details: for MIC GD102 (ΔTolC) —: E. coli ΔTolC without pore, 0.1% arabinose, LB, 37° C., 16 h
Description: (§1) Susceptibilities of E. coli and P. aeruginosa cells to different classes of antibiotics were determined by two-fold broth dilution method [1] with following modifications. Cells were grown in Luria-Bertani (LB) broth (tryptone 10 g/L, yeast extract 5 g/L and NaCl 5 g/L) with appropriate selection markers as needed, at 37° C. with shaking at 200 rpm. When needed, at OD600˜0.3, either L-arabinose (final concentration 0.1%) or IPTG (final concentration 0.1 mM) were added to induce the expression of the pore and cells were further incubated until OD600 reached 1.0. MICs of various antimicrobial agents were measured in 96-well micro-titer plates. For this purpose, exponentially growing cells were inoculated at a density of 10^5 cells/ml into wells containing LB medium in the presence of two-fold increasing concentrations of drugs under investigation at constant inducer concentration of 0.1% arabinose for E. coli or 0.1 mM IPTG for P. aeruginosa strains. Cell growth was determined visually or using Spark 10M microplate reader (Tecan) after incubation of the micro-titer plates at 37° C. for 16 h.
(§2) For this purpose, induced cells were dispensed into 96-well microplates with LB medium containing two-fold dilutions of an antibiotic of interest and a respective concentration of an inducer.

[2] = tested on: E. coli WT-Pore (GKCW101, FhuAΔC/Δ4L pore); assay: microbe, parasite or virus in culture; details: Escherichia coli
Description: as §1, §2

[3] = tested on: E. coli BW 25113 (WT); assay: microbe, parasite or virus in culture; details: Escherichia coli
Description: as §1, §2

[4] = tested on: E. coli ΔTolC-Pore (GKCW103, FhuAΔC/Δ4L pore); details: 0.1% arabinose, LB, 37° C., 16 h
Description: as §1, §2

[5] = tested on: P. aeruginosa PAO1Δ3 (Δ3); details: for MIC Δ3 —: P. aeruginosa Δ3 without pore, 0.1 mM IPTG, LB, 37° C., 16 h
Description: as §1, §2

[6] = tested on: P. aeruginosa PAO1, PAO1-Pore, Δ3, Δ3-Pore; assay: Fold MIC change between P. aeruginosa strains (OM barrier, efflux); assay type: cell-based, Pseudomonas aeruginosa; details: for Fold MIC change, Efflux, PAO1-Pore/Δ3-Pore / Fold MIC change, Efflux, PAO1/Δ3 / Fold MIC change, OM barrier, PAO1/PAO1-Pore / Fold MIC change, OM barrier, Δ3/Δ3-Pore: P. aeruginosa
[7] = tested on: E. coli WT, WT-Pore, ΔTolC, ΔTolC-Pore; assay type: cell-based, Escherichia coli; details: for Fold MIC change, Efflux, WT-Pore/ΔTolC-Pore / Fold MIC change, Efflux, WT/ΔTolC / Fold MIC change, OM barrier, WT/WT-Pore / Fold MIC change, OM barrier, ΔTolC/ΔTolC-Pore: E. coli
[8] = tested on: P. aeruginosa PAO1; assay: microbe, parasite or virus in culture; details: Pseudomonas aeruginosa, PAO1, 16 h, read-out: MIC PAO1 —
Description: as §1, §2

[9] = tested on: P. aeruginosa Δ3-Pore (GKCW116, FhuAΔC/Δ4L pore); assay: MIC, two-fold broth dilution, P. aeruginosa Δ3-Pore; details: for MIC Δ3 Pore: P. aeruginosa Δ3-Pore, 0.1 mM IPTG, LB, 37° C., 16 h
Description: as §1, §2

[10] = tested on: P. aeruginosa PAO1-Pore (GKCW115, FhuAΔC/Δ4L pore); assay: MIC, two-fold broth dilution, P. aeruginosa PAO1-Pore; details: Pseudomonas aeruginosa
Description: as §1, §2

[11] = 16 h, read-out: MIC BW 25113 (WT) Pore
[12] = 16 h, read-out: MIC BW 25113 (WT) —

Compound | MIC GD102 (ΔTolC) — [1] | MIC [2, 11] | MIC [3, 12] | MIC GD102 (ΔTolC) Pore [4] | MIC Δ3 — [5] | Fold MIC change, Efflux, PAO1-Pore/Δ3-Pore [6] | Fold MIC change, Efflux, PAO1/Δ3 [6] | Fold MIC change, OM barrier, PAO1/PAO1-Pore [6] | Fold MIC change, OM barrier, Δ3/Δ3-Pore [6] | Fold MIC change, Efflux, WT-Pore/ΔTolC-Pore [7] | Fold MIC change, Efflux, WT/ΔTolC [7] | Fold MIC change, OM barrier, WT/WT-Pore [7] | Fold MIC change, OM barrier, ΔTolC/ΔTolC-Pore [7] | MIC [8] | MIC Δ3 Pore [9] | other results
CC1(C)S[C@@H]2[C@H](NC(=O)[C@H](N)c3ccccc3)C(=O)N2[C@H]1C(=O)O [Ampicillin] | 8 µg/mL (≈ 22.9 µM) | 2 µg/mL | 16 µg/mL | 0.5 µg/mL (≈ 1.43 µM) | – | – | – | – | – | – | – | – | – | – | – | –
CC1(C)S[C@@H]2[C@H](NC(=O)C(C(=O)O)c3ccccc3)C(=O)N2[C@H]1C(=O)O (stereo partly shown) [Carbenicillin] | 1 µg/mL (≈ 2.64 µM) | 0.5 µg/mL | 4 µg/mL | 0.5 µg/mL (≈ 1.32 µM) | 0.5 µg/mL (≈ 1.32 µM) | 32 fold | 64 fold | 16 fold | 8 fold | 1 fold | 4 fold | 8 fold | 2 fold | 32 µg/mL (≈ 84.6 µM) | 0.063 µg/mL (≈ 0.166 µM) | –
CC[C@H]1OC(=O)[C@H](C)[C@@H](O[C@H]2C[C@@](C)(OC)[C@@H](O)[C@H](C)O2)[C@H](C)[C@@H](O[C@@H]2O[C@H](C)C[C@H](N(C)C)[C@H]2O)[C@](C)(O)C[C@@H](C)C(=O)[C@H](C)[C@@H](O)[C@]1(C)O [Erythromycin] | 4 µg/mL (≈ 5.45 µM) | 4 µg/mL | 64 µg/mL | – | 16 µg/mL (≈ 21.8 µM) | – | – | – | – | – | – | – | – | – | – | MIC ([10]; PAO1, read-out: MIC in P. aeruginosa PAO1-Pore cells): 1.4 µM; MIC in P. aeruginosa Δ3 cells ([5]; FIG. 5): 21.8 µM (≈ 16 µg/mL); Change of MIC on inactivation of the three major efflux pumps (PAO1 vs Δ3) [6]: 8 fold; Additional decrease of MIC in permeabilized ΔTolC-Pore cells ([7]; FIG. 4A): 16 fold; Difference of MICs in E. coli WT and ΔTolC cells ([7]; FIG. 4A): 16 fold; Reduction of MIC by permeabilization of the outer membrane in WT-Pore E. coli ([7]; FIG. 4A): 64 fold; Total potentiation (WT to ΔTolC-Pore) ([7]; FIG. 4A): 512 fold; MIC in E. coli ΔTolC cells ([1]; unchanged in the range of 0.001-0.5% arabinose (FIG. 4A)): 5.5 µM (≈ 4.04 µg/mL); MIC ([2]; read-out: MIC in E. coli WT-Pore cells): 1.4 µM; MIC ([3]; read-out: MIC in E. coli WT cells): 87 µM; MIC in P. aeruginosa Δ3-Pore cells ([9]; induced, plateau with increasing IPTG (FIG. 5)): 0.085 µM (≈ 0.0624 µg/mL)
CCC[C@@H]1C[C@@H](C(=O)N[C@@H]([C@H]2O[C@H](SC)[C@H](O)[C@@H](O)[C@H]2O)[C@@H](C)O)N(C)C1 [Lincomycin] | 64 µg/mL (≈ 157 µM) | 512 µg/mL | 512 µg/mL | 64 µg/mL (≈ 157 µM) | – | – | – | – | – | 8 fold | 8 fold | 1 fold | 1 fold | – | – | –
Nc1ccc2cc3ccc(N)cc3nc2c1 [Proflavine] | 8 µg/mL (≈ 38.2 µM) | 32 µg/mL | 32 µg/mL | 8 µg/mL (≈ 38.2 µM) | – | – | – | – | – | 4 fold | 4 fold | 1 fold | 1 fold | – | – | –
NCC[C@H](O)C(=O)N[C@@H]1C[C@H](N)[C@@H](O[C@H]2O[C@H](CN)[C@@H](O)[C@H](O)[C@H]2O)[C@H](O)[C@H]1O[C@H]1O[C@H](CO)[C@@H](O)[C@H](N)[C@H]1O [Amikacin] | 2 µg/mL (≈ 3.42 µM) | 2 µg/mL | 2 µg/mL | 2 µg/mL (≈ 3.42 µM) | 1 µg/mL (≈ 1.71 µM) | 2 fold | 1 fold | 0.5 fold | 1 fold | 1 fold | 1 fold | 1 fold | 1 fold | 1 µg/mL (≈ 1.71 µM) | 1 µg/mL (≈ 1.71 µM) | –
[H]/N=C(/N)N[C@H]1[C@H](O)[C@@H](O)[C@H](O[C@@H]2O[C@@H](C)[C@](O)(C=O)[C@H]2O[C@@H]2O[C@@H](CO)[C@H](O)[C@@H](O)[C@@H]2NC)[C@@H](N/C(N)=N\[H])[C@@H]1O [Streptomycin] | 4 µg/mL (≈ 6.88 µM) | 2 µg/mL | 2 µg/mL | 2 µg/mL (≈ 3.44 µM) | – | – | – | – | – | 1 fold | 0.5 fold | 1 fold | 2 fold | – | – | –
CO[C@@H]1[C@@H](OC(N)=O)[C@@H](O)[C@H](Oc2ccc3c(O)c(NC(=O)c4ccc(O)c(CC=C(C)C)c4)c(=O)oc3c2C)OC1(C)C [Novobiocin] | 0.5 µg/mL (≈ 0.816 µM) | 32 µg/mL | 128 µg/mL | 0.125 µg/mL (≈ 0.204 µM) | 32 µg/mL (≈ 52.2 µM) | 64 fold | 16 fold | 8 fold | 32 fold | 256 fold | 256 fold | 4 fold | 4 fold | 512 µg/mL (≈ 836 µM) | 1 µg/mL (≈ 1.63 µM) | –
CO[C@H]1/C=C/O[C@@]2(C)Oc3c(C)c(O)c4c(O)c(c(/C=N/N5CCN(C)CC5)c(O)c4c3C2=O)NC(=O)/C(C)=C\C=C\[C@H](C)[C@H](O)[C@@H](C)[C@@H](O)[C@@H](C)[C@H](OC(C)=O)[C@@H]1C [Rifampicin] | 4 µg/mL (≈ 4.86 µM) | 0.25 µg/mL | 4 µg/mL | 0.25 µg/mL (≈ 0.304 µM) | 16 µg/mL (≈ 19.4 µM) | – | – | – | – | – | – | – | – | 16 µg/mL (≈ 19.4 µM) | 0.5 µg/mL (≈ 0.608 µM) | MIC ([10]; PAO1, 16 h, read-out: MIC PAO1 Pore): 0.5 µg/mL
CN(C)[C@@H]1C(O)=C(C(N)=O)C(=O)[C@@]2(O)C(O)=C3C(=O)c4c(O)cccc4[C@@](C)(O)[C@H]3C[C@@H]12 [Tetracycline] | 0.125 µg/mL (≈ 0.281 µM) | 0.25 µg/mL | 0.5 µg/mL | 0.125 µg/mL (≈ 0.281 µM) | 2 µg/mL (≈ 4.5 µM) | 16 fold | 2 fold | 8 fold | 64 fold | 2 fold | 4 fold | 2 fold | 1 fold | 4 µg/mL (≈ 9 µM) | 0.031 µg/mL (≈ 0.0698 µM) | –
C[C@H]1COc2c(N3CCN(C)CC3)c(F)cc3c(=O)c(C(=O)O)cn1c23 [Levofloxacin] | 0.004 µg/mL (≈ 0.0111 µM) | 0.016 µg/mL | – | 0.004 µg/mL (≈ 0.0111 µM) | – | – | – | – | – | – | – | – | – | 0.125 µg/mL (≈ 0.346 µM) | – | –
CCn1cc(C(=O)O)c(=O)c2ccc(C)nc21 [Nalidixic acid] | 1 µg/mL (≈ 4.31 µM) | 8 µg/mL | 8 µg/mL | 1 µg/mL (≈ 4.31 µM) | 8 µg/mL (≈ 34.4 µM) | 16 fold | 8 fold | 2 fold | 4 fold | 8 fold | 8 fold | 1 fold | 1 fold | 64 µg/mL (≈ 276 µM) | 2 µg/mL (≈ 8.61 µM) | –
O=C(N[C@H](CO)[C@H](O)c1ccc([N+](=O)[O-])cc1)C(Cl)Cl [Chloramphenicol] | 0.5 µg/mL (≈ 1.55 µM) | 2 µg/mL | 2 µg/mL | 0.5 µg/mL (≈ 1.55 µM) | 1 µg/mL (≈ 3.09 µM) | 16 fold | 8 fold | 4 fold | 8 fold | 4 fold | 4 fold | 1 fold | 1 fold | 8 µg/mL (≈ 24.8 µM) | 0.125 µg/mL (≈ 0.387 µM) | –
Cc1onc(-c2ccccc2Cl)c1C(=O)N[C@@H]1C(=O)N2[C@@H]1SC(C)(C)[C@@H]2C(=O)O [Cloxacillin] | 1 µg/mL (≈ 2.29 µM) | 128 µg/mL | 512 µg/mL | 1 µg/mL (≈ 2.29 µM) | 128 µg/mL (≈ 294 µM) | 64 fold | ≧8 fold | ≧4 fold | 16 fold | 128 fold | 512 fold | 4 fold | 1 fold | > 2050 µg/mL | 8 µg/mL (≈ 18.4 µM) | –
